Assay: Rat serum pharmacokinetics after 1.5-hour IV infusion
Format: in vivo
Conditions: two-compartment model; for Cmax / clearance: 1.5-hour IV infusion in 0.9% saline, dose (mg/kg) differs per compound; for clearance: read-out: Clearance (free drug clearance) (converted); for pharmacokinetic profile: […] IV infusion in 0.9% saline, total dose 2, 5, 10 or 20 mg/kg
Protocol: In the experiment depicted in Table 7, above, rat serum pharmacokinetics of selected inhibitor compounds was evaluated after 1.5-hour IV infusion of 1.5 ml solution of corresponding efflux pump inhibitor in 0.9% saline. Depending on the concentration used the total infused dose was 2, 5, 10 or 20 mg/kg. A two-compartment model was used to fit the data and calculate PK parameters.

Compound	Cmax [ng/mL]	clearance [mL/min/kg]	pharmacokinetic profile
Cl.Cl.Cl.Cl.N[C@@H]1CN(C(=O)CC[C@H](N)C(=O)N[C@H](Cc2ccc(C(F)(F)F)cc2)C(=O)Nc2cnc3ccccc3c2)C[C@@H]1N [Compound 30, 3-[(1S)-1-{[(1R)-1-carbamoyl-2-[4-(trifluoromethyl)phenyl]ethyl]carbamoyl}-4-[(3R,4S)-3,4-diazaniumylpyrrolidin-1-yl]-4-oxobutan-1-aminium]quinolin-1-ium tetrachloride]	7610	56	
Cl.Cl.Cl.Cl.N[C@@H](CCC(=O)N1C[C@H](N)[C@@H](N)C1)C(=O)N[C@H](Cc1ccc(C(F)(F)F)cc1)C(=O)Nc1cnc2ccccc2c1 [Compound 33, 3-[(1S)-1-{[(1R)-1-carbamoyl-2-[4-(trifluoromethyl)phenyl]ethyl]carbamoyl}-4-[(3S,4S)-3,4-diazaniumylpyrrolidin-1-yl]-4-oxobutan-1-aminium]quinolin-1-ium tetrachloride]	3980	105	
Cl.Cl.Cl.Cl.N[C@@H](CCC(=O)N1C[C@H](N)[C@@H](N)C1)C(=O)N[C@H](CCc1ccccc1)C(=O)Nc1cnc2ccccc2c1 [Compound 41, 3-[(1S)-1-{[(1R)-1-carbamoyl-3-phenylpropyl]carbamoyl}-4-[(3S,4S)-3,4-diazaniumylpyrrolidin-1-yl]-4-oxobutan-1-aminium]quinolin-1-ium tetrachloride]	8100	45.3	
Cl.Cl.Cl.Cl.NCCN(CCN)CCC[C@H](N)C(=O)N[C@H](CCc1ccccc1)C(=O)Nc1cnc2ccccc2c1 [Compound 46, 3-[(1S)-4-[bis(2-azaniumylethyl)amino]-1-{[(1R)-1-carbamoyl-3-phenylpropyl]carbamoyl}butan-1-aminium]quinolin-1-ium tetrachloride]	4000	13.5	particularly attractive pharmacokinetic profiles
Cc1ccc(NC(=O)[C@H](CCc2ccccc2)NC(=O)[C@@H](N)CC(=O)N(CCN)CCN)cc1 [Compound 77]	2960	63.2	
CCOc1ccc(NC(=O)[C@H](CCc2ccccc2)NC(=O)[C@@H](N)CC(=O)N(CCN)CCN)cc1 [Compound 85]	13900	50	
NCCN(CCN)C(=O)C[C@H](N)C(=O)N[C@@H](CCc1ccccc1)C(=O)Nc1cc(Cl)c(Cl)cc1Cl [Compound 87]	11000	64.3	
Cc1cc(C)c(NC(=O)[C@H](CCc2ccccc2)NC(=O)[C@@H](N)CC(=O)N(CCN)CCN)c(C)c1 [Compound 88]	2500	28	
CC(C)c1ccc(NC(=O)[C@H](CCc2ccccc2)NC(=O)[C@@H](N)CC(=O)N(CCN)CCN)cc1 [Compound 91]	2670	98.2	
Cc1ccc(C)c(CNC(=O)[C@H](CCc2ccccc2)NC(=O)[C@@H](N)CC(=O)N(CCN)CCN)c1 [Compound 96]	3850	51.8	
NCCN(CCN)C(=O)C[C@H](N)C(=O)N[C@@H](CCc1ccccc1)C(=O)NCc1ccc(OC2CCOCC2)cc1 [Compound 133]	1270	88.3	
CC(C)Oc1ccc(NC(=O)[C@H](CCc2ccccc2)NC(=O)[C@@H](N)CC(=O)N(CCN)CCN)cc1 [Compound 214]	1540	92.2	
CC(C)Oc1ccc(NC(=O)[C@H](CCc2ccccc2)NC(=O)[C@@H](N)CC(=O)N(CCN)CCN)c(F)c1 [Compound 215]	690	93.3	
NCCN(CCN)C(=O)C[C@H](N)C(=O)N[C@@H](CCc1ccccc1)C(=O)NCc1c(Cl)cccc1Cl [Compound 224]	1590	66.2	
CC(C)Oc1ccc(CNC(=O)[C@H](CCc2ccccc2)NC(=O)[C@@H](N)CC(=O)N(CCN)CCN)cc1 [Compound 237]	1260	70.8	
CCCc1ccccc1NC(=O)[C@H](CCc1ccccc1)NC(=O)[C@@H](N)CC(=O)N(CCN)CCN [Compound 271]	340	78.5	
CCOc1c(F)cc(NC(=O)[C@H](CCc2ccccc2)NC(=O)[C@@H](N)CC(=O)N(CCN)CCN)cc1F.Cl.Cl.Cl [Compound 352, (1S)-2-[bis(2-azaniumylethyl)carbamoyl]-1-{[(1S)-1-[(4-ethoxy-3,5-difluorophenyl)carbamoyl]-3-phenylpropyl]carbamoyl}ethan-1-aminium trichloride]	2440	177	

More lines, main results first:

Cmax [ng/mL]	clearance [mL/min/kg]	Compound	pharmacokinetic profile
2250	217	NCCN(CCN)C(=O)C[C@H](N)C(=O)N[C@@H](CCc1ccccc1)C(=O)Nc1cnc2ccccc2c1 [Compound 2, 3-[(1S)-2-[bis(2-azaniumylethyl)carbamoyl]-1-{[(1S)-1-carbamoyl-3-phenylpropyl]carbamoyl}ethan-1-aminium]quinolin-1-ium tetrachloride]	particularly attractive pharmacokinetic profiles
21900	30	Cl.Cl.Cl.Cl.NCCN(CCN)C(=O)CC[C@H](N)C(=O)N[C@H](Cc1ccc(OC(F)(F)F)cc1)C(=O)Nc1cnc2ccccc2c1 [Compound 31, 3-[(1S)-3-[bis(2-azaniumylethyl)carbamoyl]-1-{[(1R)-1-carbamoyl-2-[4-(trifluoromethoxy)phenyl]ethyl]carbamoyl}propan-1-aminium]quinolin-1-ium tetrachloride]	
2680	24.7	NCCN(CCN)C(=O)C[C@@H](N)C(=O)N[C@H](CCc1ccccc1)C(=O)Nc1cnc2ccccc2c1 [Compound 44, 3-[(1R)-2-[bis(2-azaniumylethyl)carbamoyl]-1-{[(1R)-1-carbamoyl-3-phenylpropyl]carbamoyl}ethan-1-aminium]quinolin-1-ium tetrachloride]	
8100	28.3	Cl.Cl.Cl.Cl.NCCN(CCN)C(=O)CC[C@H](N)C(=O)N[C@H](CCc1ccccc1)C(=O)Nc1cnc2ccccc2c1 [Compound 47, 3-[(1S)-3-[bis(2-azaniumylethyl)carbamoyl]-1-{[(1R)-1-carbamoyl-3-phenylpropyl]carbamoyl}propan-1-aminium]quinolin-1-ium tetrachloride]	
7200	26	Cl.Cl.Cl.Cl.NCCN(CCN)C(=O)C[C@H](N)C(=O)N[C@H](CCc1ccccc1)C(=O)Nc1cnc2ccccc2c1 [Compound 48, 3-[(1S)-2-[bis(2-azaniumylethyl)carbamoyl]-1-{[(1R)-1-carbamoyl-3-phenylpropyl]carbamoyl}ethan-1-aminium]quinolin-1-ium tetrachloride]	particularly attractive pharmacokinetic profiles
2390	70.2	NCCN(CCN)C(=O)C[C@H](N)C(=O)N[C@@H](CCc1ccccc1)C(=O)Nc1ccc2cnccc2c1 [Compound 49]	
2980	51.7	Cc1cc(CNC(=O)[C@H](CCc2ccccc2)NC(=O)[C@@H](N)CC(=O)N(CCN)CCN)c(C(F)(F)F)o1 [Compound 67]	
1220	103	NCCN(CCN)C(=O)C[C@H](N)C(=O)N[C@@H](CCc1ccccc1)C(=O)Nc1cccc(C(F)(F)F)c1 [Compound 90]	
1750	30.2	NCCN(CCN)C(=O)C[C@H](N)C(=O)N[C@@H](CCc1ccccc1)C(=O)NCc1ccc(OC(F)(F)F)cc1 [Compound 95]	
5050	43	NCCN(CCN)C(=O)C[C@H](N)C(=O)N[C@@H](CCc1ccccc1)C(=O)NCc1ccc(F)c(C(F)(F)F)c1 [Compound 102]	
1890	91.2	NCCN(CCN)C(=O)C[C@H](N)C(=O)N[C@@H](CCc1ccccc1)C(=O)NCc1ccc(Oc2ccccn2)cc1 [Compound 110]	
22900	31.3	Cl.Cl.Cl.Cl.NCCN(CCN)C(=O)C[C@H](N)C(=O)N[C@H](C(=O)Nc1cnc2ccccc2c1)C(O)c1ccc(C(F)(F)F)cc1 (stereo partly drawn) [Compound 169, 3-[(1S)-2-[bis(2-azaniumylethyl)carbamoyl]-1-{[(1S)-1-carbamoyl-2-hydroxy-2-[4-(trifluoromethyl)phenyl]ethyl]carbamoyl}ethan-1-aminium]quinolin-1-ium tetrachloride]	
4920	118	COc1cc(OC(F)(F)F)ccc1CNC(=O)[C@H](CCc1ccccc1)NC(=O)[C@@H](N)CC(=O)N(CCN)CCN [Compound 233]	
2200	328	Cl.Cl.Cl.Cl.NCCN(CCN)C(=O)C[C@H](N)C(=O)NCC(=O)N[C@@H](CCc1ccccc1)C(=O)Nc1cnc2ccccc2c1 [Compound 348, 3-[(1S)-2-[bis(2-azaniumylethyl)carbamoyl]-1-[({[(1S)-1-carbamoyl-3-phenylpropyl]carbamoyl}methyl)carbamoyl]ethan-1-aminium]quinolin-1-ium tetrachloride]	
660	145	NCCN(CCN)C(=O)C[C@H](N)C(=O)NCC(=O)N(Cc1ccc(C(F)(F)F)cc1)c1cnc2ccccc2c1 [Compound 357, 3-[(1S)-2-[bis(2-azaniumylethyl)carbamoyl]-1-{[({[4-(trifluoromethyl)phenyl]methyl}carbamoyl)methyl]carbamoyl}ethan-1-aminium]quinolin-1-ium tetrachloride]	
5030	48.2	Cl.Cl.Cl.Cl.NCCN(CCN)C(=O)C[C@H](N)C(=O)N[C@H](Cc1ccc(C(F)(F)F)cc1)C(=O)Nc1cnc2ccccc2c1 [Compound 359, 3-[(1S)-2-[bis(2-azaniumylethyl)carbamoyl]-1-{[(1R)-1-carbamoyl-2-[4-(trifluoromethyl)phenyl]ethyl]carbamoyl}ethan-1-aminium]quinolin-1-ium tetrachloride]	
